Data set [1] relates to T1, UGT enzymes of human liver microsomes.
T1 construct: other: liver 062101
Briefly: Inhibition of 2ME2 glucuronidation (MG1, MG2) in human liver microsomes. Type of data set: biochemical. The following applies: liver 062101, 2ME2 50 μM. The source says:
Compounds were eluted using a binary solvent gradient system where solvent A was dilute phosphoric acid (pH 3) and solvent B was 80:20 acetonitrile-methanol. […] Detection was at 280 nm.
(In general: Liver microsomes are vesicles of endoplasmic reticulum, rich in cytochrome P450 enzymes.)

Data set [2] has as its target T2, UGT1A8 (Homo sapiens, UniProt Q9HAW9).
T2 sequence (Q9HAW9 26-530): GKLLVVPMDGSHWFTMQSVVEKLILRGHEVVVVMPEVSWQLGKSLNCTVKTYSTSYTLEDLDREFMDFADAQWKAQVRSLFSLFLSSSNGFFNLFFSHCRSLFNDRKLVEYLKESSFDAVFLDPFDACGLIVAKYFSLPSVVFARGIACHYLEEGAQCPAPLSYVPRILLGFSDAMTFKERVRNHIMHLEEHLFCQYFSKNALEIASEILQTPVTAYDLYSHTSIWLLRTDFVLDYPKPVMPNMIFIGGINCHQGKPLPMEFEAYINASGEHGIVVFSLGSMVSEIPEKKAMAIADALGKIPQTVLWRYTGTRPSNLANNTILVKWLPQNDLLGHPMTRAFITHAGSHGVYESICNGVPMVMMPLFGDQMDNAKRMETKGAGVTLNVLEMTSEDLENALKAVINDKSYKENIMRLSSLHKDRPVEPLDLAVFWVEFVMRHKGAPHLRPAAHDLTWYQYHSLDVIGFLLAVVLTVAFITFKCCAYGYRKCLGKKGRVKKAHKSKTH
Description: Inhibition of raloxifene glucuronidation by recombinant UGT1A8 Supersomes. The following applies: for activity at 15 min, 50 µM / activity at 15 min, 10 µM: human, Supersomes with recombinant human UGT1A8, pH 7.5, probe raloxifene 50 μM; for activity at 15 min, 10 µM: inhibitor 10 μM.
Description: (§1) Compounds were eluted using a binary solvent gradient system. Solvent A was water brought to pH 8 with NH4OH. Solvent B was methanol. Solvent flow rate was 1 ml/min and the column temperature was maintained at 50° C. Detection was at 280 nm. […] The system was then returned to the initial conditions and equilibrated for 3 min.

Data set [3] relates to UGT enzymes of human liver microsomes. Description: Inhibition of 7-HFC glucuronidation in human liver microsomes. Type of data set: biochemical. The following applies: 7-HFC 50 μM, human liver microsomes 100 μg/ml, 15 min.
A further data set concerns the target T3, UGT1A1 (Homo sapiens, UniProt P22309).
T3 sequence (P22309 26-533): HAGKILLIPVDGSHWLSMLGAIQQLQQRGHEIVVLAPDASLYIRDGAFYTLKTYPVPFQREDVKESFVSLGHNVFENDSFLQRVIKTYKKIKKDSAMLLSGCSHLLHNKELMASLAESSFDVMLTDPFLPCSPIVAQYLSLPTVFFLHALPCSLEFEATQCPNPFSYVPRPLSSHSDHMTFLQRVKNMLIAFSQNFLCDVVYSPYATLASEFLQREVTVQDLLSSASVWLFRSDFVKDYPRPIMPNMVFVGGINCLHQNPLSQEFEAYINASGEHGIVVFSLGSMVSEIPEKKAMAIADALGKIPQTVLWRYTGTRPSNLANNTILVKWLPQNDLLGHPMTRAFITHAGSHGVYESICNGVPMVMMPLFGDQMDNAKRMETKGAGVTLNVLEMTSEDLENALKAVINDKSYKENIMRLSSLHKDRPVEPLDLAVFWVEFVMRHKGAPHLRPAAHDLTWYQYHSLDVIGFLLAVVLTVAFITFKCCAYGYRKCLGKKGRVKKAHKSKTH
Briefly: in vitro.

Another data set deals with T4, UGT1A3 (Homo sapiens, UniProt P35503).
T4 sequence (P35503 29-534): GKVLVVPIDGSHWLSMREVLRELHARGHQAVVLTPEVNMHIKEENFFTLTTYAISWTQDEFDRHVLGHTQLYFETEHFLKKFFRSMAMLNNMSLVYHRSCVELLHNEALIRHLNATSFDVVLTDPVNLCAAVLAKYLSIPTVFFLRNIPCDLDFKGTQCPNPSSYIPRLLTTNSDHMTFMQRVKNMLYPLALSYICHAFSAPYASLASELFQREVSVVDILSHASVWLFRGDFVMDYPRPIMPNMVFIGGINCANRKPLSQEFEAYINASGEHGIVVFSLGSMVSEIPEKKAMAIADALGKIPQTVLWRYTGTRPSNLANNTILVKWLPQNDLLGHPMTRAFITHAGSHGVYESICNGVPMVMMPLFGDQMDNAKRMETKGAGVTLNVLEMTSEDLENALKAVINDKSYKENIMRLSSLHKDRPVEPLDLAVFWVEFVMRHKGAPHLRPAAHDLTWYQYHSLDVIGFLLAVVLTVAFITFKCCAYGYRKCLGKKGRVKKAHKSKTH
Description: in vitro.

The target in a further data set is T5, UGT1A9 (Homo sapiens, UniProt O60656).
T5 sequence (O60656 26-530): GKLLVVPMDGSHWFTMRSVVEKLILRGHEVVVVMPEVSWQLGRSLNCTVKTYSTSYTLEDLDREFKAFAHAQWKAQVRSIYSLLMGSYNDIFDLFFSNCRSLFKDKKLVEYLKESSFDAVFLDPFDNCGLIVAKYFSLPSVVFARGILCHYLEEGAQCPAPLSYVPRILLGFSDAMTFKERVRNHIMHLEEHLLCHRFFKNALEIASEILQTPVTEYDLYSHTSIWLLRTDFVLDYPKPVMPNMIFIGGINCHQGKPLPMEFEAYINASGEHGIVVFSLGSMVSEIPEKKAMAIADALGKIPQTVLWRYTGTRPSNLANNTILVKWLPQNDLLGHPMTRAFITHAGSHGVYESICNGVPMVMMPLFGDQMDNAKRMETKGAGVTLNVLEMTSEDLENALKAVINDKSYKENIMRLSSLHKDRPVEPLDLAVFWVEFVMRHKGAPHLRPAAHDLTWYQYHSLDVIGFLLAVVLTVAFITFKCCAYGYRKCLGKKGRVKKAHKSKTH
Description: in vitro. The following applies: pH 7.5, % of control metabolism.

For data set [4], the target named is T2, UGT1A8. Description: in vitro. The following applies: pH 7.5, % of control metabolism.
Description: as §1
[5] abbreviates: pH 7.5, % of control metabolism, raloxifene G1.
Where [6] appears, read: pH 7.5, % of control metabolism, raloxifene G2.
The mark [7] stands for this setting: pH 7.5, Inhibition of raloxifene glucuronidation, G1, UGT1A1.
[8] abbreviates: pH 7.5, Inhibition of raloxifene glucuronidation, G2, UGT1A1.
[9] abbreviates: pH 7.5, Inhibition of raloxifene glucuronidation, G1, UGT1A3.
Where [10] appears, read: pH 7.5, Inhibition of raloxifene glucuronidation, G2, UGT1A3.
Setting [11] is: formation of glucuronide G1, % of control metabolism, raloxifene G1, UGT1A8, inhibitor 50 μM.
Setting [12] is: formation of glucuronide G2, % of control metabolism, raloxifene G2, UGT1A8, inhibitor 50 μM.
Setting [13] is: formation of glucuronide G1, % of control metabolism, raloxifene G1, UGT1A8.
Setting [14] is: formation of glucuronide G2, % of control metabolism, raloxifene G2, UGT1A8.

Where “and” joins values, the source holds several entries; their conditions need not be identical. Equal values may be shown once.

Description for UGT1A1: as §1
Description for UGT1A3: as §1
Description for UGT1A9: as §1

On to `O=C(O[C@@H]1Cc2c(O)cc(O)cc2O[C@@H]1c1cc(O)c(O)c(O)c1)c1cc(O)c(O)c(O)c1` [Epigallocatechin gallate], for which, in data set [1] (inhibitor 25 μM), the “residual metabolism (% of control), 2ME2 MG1” value is given as 61 (1) % and the “residual metabolism (% of control), 2ME2 MG2” value was 79 (0) %. Further, in data set [1] (inhibitor 50 μM), the “residual metabolism (% of control), 2ME2 MG1” value is recorded as 48 (2) % and the “residual metabolism (% of control), 2ME2 MG2” value is on record as 71 (1) %. Further, in data set [1] (inhibitor 100 μM), the “residual metabolism (% of control), 2ME2 MG1” value is reported as 29 (1) % and the “residual metabolism (% of control), 2ME2 MG2” value was 35 (1) %. At UGT1A8 [2] (UGT1A8, inhibitor 50 μM), the “% of control metabolism, raloxifene G1” value is given as 69 (3) % and the “% of control metabolism, raloxifene G2” value was 54 (2) %.
`CCCOC(=O)c1cc(O)c(O)c(O)c1` [Propyl gallate]: the “% of control metabolism (SD, n = 3), 7-HFC glucuronidation” value in data set [3] (inhibitor 1000 μM) was 46 (1) %; in data set [3] (inhibitor 2000 μM), 32 (0) %. Further, the activity at 15 min, 50 µM was 72% at UGT1A1 (setting [5]); 73% on UGT1A1 (setting [6]); 72% at UGT1A1 (setting [7]); 73% on UGT1A1 (setting [8]); 55% at UGT1A3 (setting [5]); 56% on UGT1A3 (setting [6]). The activity at 15 min, 50 µM on UGT1A3 (setting [9]) worked out at 55%; on UGT1A3 (setting [10]), 56%; at UGT1A9 (raloxifene G1), 48%; on UGT1A9 (raloxifene G2) it was 51%. For the same molecule, the values for the activity at 15 min, 25 µM at UGT1A3 (setting [9]) and at UGT1A3 (setting [10]) were 72% and 79%, respectively.
Turning to `O=C(O[C@@H]1Cc2c(O)cc(O)cc2O[C@H]1c1cc(O)c(O)c(O)c1)c1cc(O)c(O)c(O)c1` [Gallocatechin gallate], the “residual metabolism (% of control), 2ME2 MG1” value in data set [1] (inhibitor 25 μM) is listed as 33 (1) %; in data set [1] (inhibitor 50 μM), 21 (2) %; in data set [1] (inhibitor 100 μM), 9 (1) %. Also, the “residual metabolism (% of control), 2ME2 MG2” value in data set [1] (inhibitor 25 μM) is 73 (1) %; in data set [1] (inhibitor 50 μM), 61 (1) %; in data set [1] (inhibitor 100 μM) it was 36 (1) %. The activity at 15 min, 50 µM was determined as 36% at UGT1A8 [2] (setting [11]) and 35% at UGT1A8 [2] (setting [12]).
Take `O=C(O)c1cc(-c2ccc(F)cc2F)ccc1O` [Diflunisal, reference compound]: the results for the “residual metabolism (% of control), 2ME2 MG1” value in data set [1] (inhibitor 50 μM) and in data set [1] (inhibitor 100 μM) were 63 (2) % and 49 (1) %, respectively. Moreover, the “residual metabolism (% of control), 2ME2 MG2” value in data set [1] (inhibitor 50 μM) is given as 90 (5) %; in data set [1] (inhibitor 100 μM) it was 91 (1) %. The activity at 15 min, 25 µM on UGT1A1 (setting [5]), on UGT1A1 (setting [6]), on UGT1A1 (setting [7]) and on UGT1A1 (setting [8]) was 53% throughout. Also, the activity at 15 min, 50 µM amounted to 31% at UGT1A1 (setting [5]); 33% on UGT1A1 (setting [6]); 31% on UGT1A1 (setting [7]); 33% at UGT1A1 (setting [8]); 83% on UGT1A3 (setting [5]); 81% at UGT1A3 (setting [6]). Besides, the activity at 15 min, 50 µM on UGT1A3 (setting [9]) amounted to 83%; on UGT1A3 (setting [10]), 81%; at UGT1A8 [4] (raloxifene G1) it was 81%; at UGT1A8 [4] (raloxifene G2), 126%; on UGT1A9 (raloxifene G1) it was 50%; at UGT1A9 (raloxifene G2) it was 43%.
Regarding `CCCCCCCCOC(=O)c1cc(O)c(O)c(O)c1` [Octyl gallate], the “residual metabolism (% of control), 2ME2 MG1” value in data set [1] (inhibitor 50 μM) is reported as 68 (3) %; in data set [1] (inhibitor 100 μM) it was 51 (0) %. Further, the figures for the “residual metabolism (% of control), 2ME2 MG2” value in data set [1] (inhibitor 50 μM) and in data set [1] (inhibitor 100 μM) were 94 (4) % and 65 (3) %, respectively. The activity at 15 min, 50 µM is 116% on UGT1A8 [2] (setting [11]) and 95% at UGT1A8 [2] (setting [12]).
As for `O=C(OC[C@H]1O[C@@H](OC(=O)c2cc(O)c(O)c(OC(=O)c3cc(O)c(O)c(O)c3)c2)[C@H](OC(=O)c2cc(O)c(O)c(OC(=O)c3cc(O)c(O)c(O)c3)c2)[C@@H](OC(=O)c2cc(O)c(O)c(OC(=O)c3cc(O)c(O)c(O)c3)c2)[C@@H]1OC(=O)c1cc(O)c(O)c(OC(=O)c2cc(O)c(O)c(O)c2)c1)c1cc(O)c(O)c(OC(=O)c2cc(O)c(O)c(O)c2)c1` [Tannic acid], the “% of control metabolism (SD, n = 3), 7-HFC glucuronidation” value in data set [3] (inhibitor 5 μM) was 72 (1) %; in data set [3] (inhibitor 10 μM), 47 (2), % and 50 (1) %. Further, the “residual metabolism (% of control), 2ME2 MG1” value is 13 (1) % in data set [1] (inhibitor 25 μM) and “<LOQ” in data set [1] (inhibitor 50 μM). Also, the “residual metabolism (% of control), 2ME2 MG2” value in data set [1] (inhibitor 25 μM) is listed as 49 (7) %; in data set [1] (inhibitor 50 μM) it was 28 (1) %. Further, the activity at 15 min, 10 µM at UGT1A8 [2] (setting [13]) was 73%; at UGT1A8 [2] (setting [14]), 75%.
`CC/C(=C(/CC)c1ccc(O)cc1)c1ccc(O)cc1` [Diethylstilbestrol, reference compound]: the “% of control metabolism (SD, n = 3), 7-HFC glucuronidation” value in data set [3] (inhibitor 5 μM) is given as 90 (3) %; in data set [3] (inhibitor 10 μM), 80 (4) %. In addition, the activity at 15 min, 10 µM came to 156% at UGT1A8 [2] (setting [13]) and 73% on UGT1A8 [2] (setting [14]).

For the origin of these results see US20030215462A1, “Use of UGT inhibitors to increase bioavailability” (priority 2001, published 2003).
